From patent US8198317B2, “Methylenedioxy phenolic compounds and their use to treat disease” (The Ohio State University Research Foundation, priority 2008, dated 2012)

Legend:
Format in all cases: in vivo, rabbit
[1] = test system: Watanabe Heritable Hyperlipidemic Rabbits (WHHL); assay: MRI of abdominal aortic wall volume in WHHL rabbits
Experimental: In vivo experiments on hypercholesterolemic rabbits (Watanabe Heritable Hyperlipidemic Rabbits, WHHL) were performed in 6 rabbits treated with INV-75. Four rabbits served as controls.
Animal Model: WHHL rabbits weighing approximately 2 kg at 2 months were purchased from Brown Family in Alabama and housed in the institutional Laboratory Animal Center. Rabbits at the age of 6 months were used for all experiments. Rabbits were allowed free access to water and were fed a high cholesterol chow (2% cholesterol) from Harlan Tekad TD 7251. The animal care and experimental protocols were in accordance with nationally approved guidelines. The protocol that the rabbits were subjected to is outlined in FIG. 7. INV-75 was dissolved in 90% ethanol and sprayed on the high fat chow. The diet-drug mixture was then vacuum dried overnight to remove ethanol and then used to feed rabbits.
Each animal underwent three MRI studies: the first one prior to high fat feeding (baseline prior to drug administration); the second at the mid-point of drug therapy; and the final study after 12 weeks of drug therapy (FIG. 7). […] At the end of the study, all animals underwent an MRI study for plaque volume quantification. […]
High-resolution non-invasive MRI served to assess the degree of atherosclerosis before and after the corresponding treatments. Atherosclerotic plaque in the abdominal aorta of WHHL rabbits was analyzed by in vivo MRI scans at the indicated time points (FIG. 7). […] Plaque burden was determined by manually tracing the external elastic lamina (EEM) and the luminal border (L) and determining the area within each boundary using Siemens Viewer software. Slice volume (V) was calculated as V=(EEM-L)*4.0 and total wall volume per animal was calculated using the formula TWV=Σ[(EEM-L)*4] and expressed in mm^3. TWVs for each animal at each time point were normalized for varying numbers of readable slices with the formula NWV=(TWV/n)*m; n=number of slices readable in the individual animal and m=mean number of slices readable in all animals over all time points. […]

[2] = test system: Watanabe Heritable Hyperlipidemic Rabbits (WHHL); assay: Quantitative RT-PCR of genes in thoracic aorta of WHHL rabbits
Experimental: Total RNA was isolated with TRIzol reagent (Invitrogen). Four microgram of total RNA was reverse transcribed by random hexamers and ThermoScript RT-PCR System (Invitrogen). Quantitative real-time PCR was performed with the Stratagene Mx3005 using SYBER Green PCR Master Mix (Applied Biosystems, Foster City, Calif.). Relative expression level compared to GAPDH was obtained. The primers used in the experiment are depicted in the table below and were purchased from Invitrogen.

[3] = test system: thoracic aorta of New Zealand White rabbits; assay: Myograph experiments on thoracic aortic rings of NZW rabbits
Experimental: Animal Model: 15 male New Zealand White rabbits (Charles River, Mass.) were fed with high fat diet (HFD) (Harlan Teklad rabbit diet with 0.5% cholesterol, TD 87251). After 4 weeks of high fat diet, rabbits were randomized into three different treatment groups, normal control (n=5), lipoic acid (100 mg/kg/day) (n=5), INV 70-65 (100 mg/kg/day) (n=5). These drugs were administered to the animals via their chow by mixing the drugs with the high fat diet. A fixed amount of chow and drugs admixed in the chow were fed to all animals every day after carefully calculating food intake in each rabbit. Drugs were dissolved in 100% ethanol and sprayed onto the diet and kept under vacuum to let ethanol evaporate overnight. Two (2) weeks after drug or control admixed HFD, all rabbits underwent aortic balloon denudation surgeries followed by 12 weeks of continued administration of drug or controls admixed with HFD. FIG. 29 provides an outline of the experimental design.
Rabbits were euthanized by injection of lethal doses of pentobarbital. The thoracic aortas were collected for the myograph studies. Two (2) mm thoracic aortic rings were suspended in individual organ chambers filled with physiological salt solution buffer (sodium chloride, 130 mEq/L; potassium chloride, 4.7 mEq/L; calcium dichloride, 1.6 mEq/L; magnesium sulfate, 1.17 mEq/L; potassium diphosphate, 1.18 mEq/L; sodium bicarbonate, 14.9 mEq/L; EDTA, 0.026 mEq/L; and glucose, 99.1 mg/dL [5.5 mmol/L]; pH, 7.4), aerated continuously with 5% carbon dioxide in oxygen at 37° C. Vessels were allowed to equilibrate for at least 1 hour at a resting tension of 30 mN before being subjected to graded doses of agonists. The vasoconstrictor agonist phenylephrine (PE) was used and responses were expressed as a percentage of the peak response to 120 mEq/L of potassium chloride. The vessels subjected to PE were washed thoroughly and allowed to equilibrate for 1 hour before beginning experiments with acetylcholine or sodium nitroprusside (SNP). […] Results for the vasodilators were expressed as a percentage of pre-contraction by PE (0.1 μM).

[4] = NZW thoracic aorta, end of 12 weeks
[5] = NZW thoracic aorta, end of 12 weeks, % of pre-contraction by PE

Compound | wall volume, abdominal aorta, MRI ([1]; 12 weeks) [cm^3] | Mean normalized wall volume (NWV), abdominal aorta, MRI ([1]; baseline, prior to supplementation) [cm^3] | mean plaque volume, abdominal aorta, MRI ([1]; study midpoint, 6 weeks of supplementation) [cm^3] | mRNA expression of ICAM-1 ([2]; WHHL thoracic aorta) | mRNA expression of L-selectin ([2]; WHHL thoracic aorta) | mRNA expression of MCP-1 ([2]; WHHL thoracic aorta) | mRNA expression of VCAM-1 ([2]; WHHL thoracic aorta) | mRNA expression of the angiotensin II Type I receptor ([2]; WHHL, data not shown) | Ach LogEC50 [3, 4] [M] | PE LogEC50 [3, 4] [M] | SNP-1 LogEC50 [3, 4] [M] | PE Maximum Effect ([3]; NZW thoracic aorta, end of 12 weeks, % of peak response to KCl) [%] | Ach Maximum Effect [3, 5] [%] | Insulin Maximum Effect [3, 5] [%] | SNP-1 Maximum Effect [3, 5] [%] | effect on Insulin EC50 doses ([3]; NZW, in words) | improving response to acetylcholine when compared to control ([3]; NZW, in words) | relaxation to peak doses of Insulin compared to lipoic acid ([3]; NZW, in words) | vascular contractility to alpha receptor agonist ([3]; NZW, in words)
CC(=O)Oc1cc2c(cc1[N+](=O)[O-])OCO2 [INV-75, 3,4-methylenedioxy-6-nitrophenyl acetate] | 0.37 | 0.24 | 0.35 | decreased | decreased | decreased | decreased | decreased | – | – | – | – | – | – | – | – | – | – | –
O=C(CCCCC1CCSS1)Oc1ccc2c(c1)OCO2 (stereo not shown) [INV-7065, 3,4-Methylenedioxy phenyl lipoate] | – | – | – | – | – | – | – | – | −6.67 ± 0.16 | −6.28 ± 0.08 | −7.09 ± 0.16 | 109.1 ± 4.78 | −29.84 ± 2.09 | −132.5 ± 14.59 | −83.06 ± 4.95 | no effect | no different than lipoic acid | improved | decreases
